From PubChem BioAssay AID2060884 (Molecular Pharmacology Branch, DTP, NCI, 2025)
pIC50: −log10 of the molar value.

System: NCI-H929 complex spheroids, viability % test/control
Assay: Anticancer human tumor NCI-H929 cell line growth inhibition [RAS];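 further: compound exposure lasted seven days before viability was read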
Conditions: for pIC50: curve of first compound; for viability, T/C: stronger effect = lower value
Text: RAS pathway inhibitors in Combinations in Complex Spheroids
A high-throughput screen of multi-cell type tumor spheroids was designed to identify active combinations of RAS pathway inhibitors and targeted small molecules. Complex spheroids include a stromal component modeled by human endothelial cells (HUVEC) and fibroblasts modeled by human mesenchymal stem cells (MSCs). The concentration ranges selected for each drug and investigational agent were based upon clinically achievable concentrations if the clinical Cmax of the agent was known.
Compounds. The drugs and investigational agents: abemaciclib (NSC768073), cobimetinib (NSC768068), divarasib (GDC6063, NSC841802), docetaxel (NSC628503), GDC-1971 (RLY-1971, NSC841576), gemcitabine (NSC613327), inavolisib (NSC800729), ipatasertib (NSC767898), KB-0742 (NSC834161), MRTX-1133 (NSC836407), osimertinib (NSC779217), RMC-4630 (NSC839698), RMC-6236 (NSC851965), RMC-6291 (NSC852671), Ro-3306 (NSC812927), sapanisertib (NSC764658), SN-38 (NSC673596), staurosporine (NSC755774), SY5609 (NSC837396), and tovorafenib (DAY101, NSC766906), were obtained from the National Cancer Institute (NCI) Developmental Therapeutics Program Chemical Repository. The FDA-approved anticancer drug set is available from the NCI Developmental Therapeutics Program. […] The stock solutions were prepared in dimethyl sulfoxide (DMSO, Sigma-Aldrich, St. Louis, MO, cat. D2650) at 800-fold the tested concentration and stored at -70 degrees C prior to their use. All drugs and investigational agents were tested over a range starting from a high concentration at or near the clinical Cmax and decreasing in half-log increments. If the clinical Cmax for an agent had not been determined, the highest concentration tested was 10 microM.
Cell Culture. All cells were maintained in an incubator at 37 degrees C and 5% CO2 with 95% humidity. The PDC lines were cultured according to standard operating procedures established by the NCI PDMR. All PDCs were thawed and cultured in Matrigel-coated flasks prepared with a working solution of 1X Ham's F-12 nutrient mix, without supplementation (Invitrogen, Waltham, MA, cat. 11765054), 100 U/mL penicillin-streptomycin (Invitrogen, cat. 15140122), and 2.5% Matrigel (Corning Inc., Corning, NY, cat. 354248) for the first three passages. The 362531-283-R-J2-PDC and 782815-120-R-J1-PDC lines were cultured in 6C/Colon 1B media, which includes advanced DMEM/F-12 (Thermo Fisher Scientific, cat. 12634028), 10 mM HEPES (Thermo Fisher Scientific, cat. 15630080), 1X GlutaMAX supplement (Thermo Fisher Scientific, cat. 35050061), 0.1 mg/mL primocin (InvivoGen, San Diego, CA, cat. ant-pm-2), 10% defined fetal bovine serum, heat inactivated (HyClone Laboratories Inc., Logan, UT, cat. SH30070.03HI), 50% L-WRN conditioned media (ATCC, cat. CRL-3276), 1.25 mM N-Acetyl-L-cysteine (Sigma-Aldrich, cat. A9165), 10 mM nicotinamide (Sigma-Aldrich, cat. N0636), 1X B-27 supplement (Thermo Fisher Scientific, cat. 17504044), 1X N-2 supplement (Thermo Fisher Scientific, cat. 17502048), 50 ng/mL human EGF (Thermo Fisher Scientific, cat. PHG0311), and 10 microM Y-27632 dihydrochloride (Tocris Bioscience, cat. 1254). The K12877-001-R-J1-PDC line was cultured in 6I media, which includes all 6C/Colon 1B media plus 10 ng/mL human FGF-10 (PeproTech, cat. 100-26), 1 ng/mL human FGF-2 (PeproTech, cat. 100-18B), 1 µM prostaglandin E2 (Tocris Bioscience, cat. 2296), […] hydrocortisone (Sigma-Aldrich, cat. H4001), and […] bovine insulin (Sigma-Aldrich, cat. I6634). The K86415-001-R-J1-PDC line was cultured in 6D media, which includes all 6C/Colon 1B media components minus the L-WRN conditioned media. The 485176-168-R4-J1-PDC was cultured in PANC media, which includes all 6C/Colon 1B media plus 100 ng/mL human FGF-10 (PeproTech, cat. 100-26), 500 nM SB-431542 (Selleckchem, cat. S1067), and 10 nM gastrin (Tocris Bioscience, cat. 3006). […]

With `CC(C)n1nc(-c2ccc3oc(N)nc3c2)c2c(N)ncnc21` + C#Cc1c(F)ccc2cc(O)cc(-c3ncc4c(N5CC6CCC(C5)N6)nc(OCC56CCCN5CC(F)C6)nc4c3F)c12 the pIC50 (second compound 0.0316 µM) was 7.21, the pIC50 (second compound 0.1 µM) was 7.21 and the pIC50 (second compound 0.316 µM) was 7.21. For the same compound, the pIC50 (second compound 1 µM) was 7.22, the pIC50 (second compound 3.16 µM) was 7.22 and the pIC50 (second compound 10 µM) was 7.35. It also gave a viability, T/C (second compound 0.0316 µM, first compound 0.000316 µM) of 96.7%, a viability, T/C (second compound 0.0316 µM, first compound 0.001 µM) of 97.5% and a viability, T/C (second compound 0.0316 µM, first compound 0.00316 µM) of 103%. It also gave a viability, T/C (second compound 0.0316 µM, first compound 0.01 µM) of 112%, a viability, T/C (second compound 0.0316 µM, first compound 0.0316 µM) of 119% and a viability, T/C (second compound 0.0316 µM, first compound 0.1 µM) of 9.44%. For the same compound, the viability, T/C (second compound 0.1 µM, first compound 0.000316 µM) was 96%, the viability, T/C (second compound 0.1 µM, first compound 0.001 µM) was 101% and the viability, T/C (second compound 0.1 µM, first compound 0.00316 µM) was 105%. The viability, T/C (second compound 0.1 µM, first compound 0.01 µM) was 115%, the viability, T/C (second compound 0.1 µM, first compound 0.0316 µM) was 118% and the viability, T/C (second compound 0.1 µM, first compound 0.1 µM) was 8.74%. For the same compound, the viability, T/C (second compound 0.316 µM, first compound 0.000316 µM) was 96.7%, the viability, T/C (second compound 0.316 µM, first compound 0.001 µM) was 108% and the viability, T/C (second compound 0.316 µM, first compound 0.00316 µM) was 104%. The viability, T/C (second compound 0.316 µM, first compound 0.01 µM) was 113%, the viability, T/C (second compound 0.316 µM, first compound 0.0316 µM) was 117% and the viability, T/C (second compound 0.316 µM, first compound 0.1 µM) was 7.88%. The viability, T/C (second compound 1 µM, first compound 0.000316 µM) was 95%, the viability, T/C (second compound 1 µM, first compound 0.001 µM) was 99.2% and the viability, T/C (second compound 1 µM, first compound 0.00316 µM) was 109%. The viability, T/C (second compound 1 µM, first compound 0.01 µM) was 112%, the viability, T/C (second compound 1 µM, first compound 0.0316 µM) was 117% and the viability, T/C (second compound 1 µM, first compound 0.1 µM) was 5.23%. The viability, T/C (second compound 3.16 µM, first compound 0.000316 µM) was 99.5%, the viability, T/C (second compound 3.16 µM, first compound 0.001 µM) was 101% and the viability, T/C (second compound 3.16 µM, first compound 0.00316 µM) was 107%. The viability, T/C (second compound 3.16 µM, first compound 0.01 µM) was 111%, the viability, T/C (second compound 3.16 µM, first compound 0.0316 µM) was 112% and the viability, T/C (second compound 3.16 µM, first compound 0.1 µM) was 5.57%. It also gave a viability, T/C (second compound 10 µM, first compound 0.000316 µM) of 101%, a viability, T/C (second compound 10 µM, first compound 0.001 µM) of 97.2% and a viability, T/C (second compound 10 µM, first compound 0.00316 µM) of 100%. For the same compound, the viability, T/C (second compound 10 µM, first compound 0.01 µM) was 96.6%, the viability, T/C (second compound 10 µM, first compound 0.0316 µM) was 69.5% and the viability, T/C (second compound 10 µM, first compound 0.1 µM) was 4.27%.
